Assay results published in PubChem BioAssay (NCI).
“And” between values parts separate entries of the source, which are not always exact repeats. Equal entries are not always repeated.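 Interpolation was linear, between the two tested concentrations surrounding the appropriate level; five concentrations were tested over 48 hours in 96-well plates. Abbreviation: GI50, concentration required for 50% inhibition of growth. TGI is the concentration that stops growth completely.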

What was measured:
Assay in all cases: DTP human tumour cell line panel, 48 h
ACHN renal = system: ACHN renal
KM12 colon = system: KM12 colon
M14 melanoma = system: M14 melanoma
MCF7 breast = system: MCF7 breast
NCI-H23 lung = system: NCI-H23 lung
NCI/ADR-RES ovarian = system: NCI/ADR-RES ovarian
OVCAR-3 ovarian = system: OVCAR-3 ovarian
SF-539 CNS = system: SF-539 CNS
SNB-75 CNS = system: SNB-75 CNS
TK-10 renal = system: TK-10 renal

Structure (SMILES) | GI50 (ACHN renal) | TGI (ACHN renal) | GI50 (KM12 colon) | TGI (KM12 colon) | GI50 (M14 melanoma) | TGI (M14 melanoma) | GI50 (MCF7 breast) | TGI (MCF7 breast) | GI50 (NCI-H23 lung) | TGI (NCI-H23 lung) | GI50 (NCI/ADR-RES ovarian) | TGI (NCI/ADR-RES ovarian) | GI50 (OVCAR-3 ovarian) | TGI (OVCAR-3 ovarian) | GI50 (SF-539 CNS) | TGI (SF-539 CNS) | GI50 (SNB-75 CNS) | TGI (SNB-75 CNS) | GI50 (TK-10 renal) | TGI (TK-10 renal)
C#CCOc1cccc(Nc2ncnc3ccc(NC(=O)CCl)cc23)c1 | 0.253 µM | 7.73 µM | 0.776 µM | 10.6 µM | 1.07 µM | 18.8 µM | 0.428 µM | 14.4 µM | 2.87 µM | 29.9 µM | 0.817 µM | > 100 µM | 0.908 µM | 7.06 µM | 2.83 µM | 7.23 µM | 1.87 µM | > 100 µM | 2.06 µM | 18.1 µM
CC(=O)[O][Hg][c]1ccccc1 | 1.23 µM | 2.61 µM | 1.6 µM | 3.04 µM | 0.283 µM | 1.06 µM | 0.197 µM | 0.684 µM | 0.682 µM | 3.46 µM | 1.7 µM | 5.74 µM | 0.147 µM | 0.295 µM | 1.42 µM | 2.83 µM | 0.771 µM | 2.2 µM | 0.512 µM | 1.36 µM
O=C(O)C1(Cc2cccc(Nc3nccs3)n2)CCC(Oc2cccc(Cl)c2F)CC1 (centres undefined) | 14.4 µM | > 100 µM | 0.204 µM | 29.3 µM | 2.96 µM | 30.2 µM | 0.329 µM | 50.5 µM | 12.9 µM | 34.5 µM | 3.48 µM | > 65.4 µM | 13.3 µM | 36.4 µM | 6.73 µM | 24.4 µM | 11 µM | 62.2 µM | 18.8 µM | 61.9 µM
COc1ccc(-c2cc(=O)c3c(O)cc(C)cc3o2)cc1OC |  | > 100 µM |  | > 100 µM |  | > 100 µM |  | > 100 µM |  | > 100 µM |  | > 100 µM |  | > 100 µM |  | > 100 µM |  | > 100 µM |  | > 100 µM
C/C(Cc1ccc(Cl)cc1)=C(/c1ccc(Cl)cc1)c1ccc(OCCN(C)C)cc1 | 5.12 µM | 9.56 µM | 4.16 µM | 8.95 µM | 5.19 µM | 10.8 µM | 1.7 µM | 6.31 µM | 4.54 µM | 9.14 µM | 4.8 µM | 9.88 µM | 4.53 µM | 9.2 µM | 4.77 µM | 9.22 µM | 3.47 µM | 7.93 µM | 5.1 µM | 10.8 µM
COc1cnc2c(c1)C(=O)c1c-2n(CCCN2CCCC2)c(=O)c2cc(F)ccc12 | 0.155 µM | 0.461 µM | 0.284 µM | 4.73 µM | 0.392 µM | 1.95 µM | 0.0482 µM | 3.88 µM | 0.331 µM | 2.4 µM | 0.467 µM | 3.19 µM | 0.307 µM | 1.51 µM | 0.36 µM | 1.48 µM | 0.327 µM | 5.44 µM | 0.46 µM | 2.13 µM
O=C(c1ccccc1)c1nc2ccc(C(F)(F)F)cc2[n+]([O-])c1C(F)(F)F | 39.3 µM | > 100 µM | 37.3 µM | > 100 µM | 34.5 µM | > 100 µM | 36 µM | > 100 µM | 29.1 µM | > 100 µM | 27 µM | > 100 µM | 24.2 µM | > 100 µM | 51.1 µM | > 100 µM | 37.1 µM | > 100 µM | 37.5 µM | > 100 µM
COc1ccc(C(=O)COc2cccc(/C=C3\CSc4ccc(C)cc4C3=O)c2)cc1 | 25.7 µM | > 100 µM | 3.69 µM | > 100 µM | 23.6 µM | > 100 µM | 2.64 µM | 31.3 µM | 6.99 µM | > 100 µM | 3.89 µM | 18.7 µM | 15.4 µM | 57.6 µM | > 100 µM | > 100 µM | 27.9 µM | > 100 µM | 19.8 µM | > 100 µM
O=C(CCCCCCSc1nc(-c2ccc(Cl)cc2)cc(-c2ccc(Cl)cc2)n1)NO | 1.21 µM | 3.59 µM | 2.02 µM | > 50 µM | 1.26 µM | 3.87 µM | 1.44 µM | > 50 µM | 1.32 µM | 4.33 µM | 0.998 µM | 2.97 µM | 1.38 µM | 4.91 µM | 1.53 µM | 5.57 µM | 1.32 µM | 15.6 µM | 1.61 µM | 11.9 µM
Cc1c(NC(=O)OC[C@@H]2COCCN2)cn2ncnc(Nc3ccc4c(cnn4Cc4cccc(F)c4)c3)c12 | 0.576 µM and 0.44 µM | > 10 µM and 15.3 µM | > 10 µM and 11.5 µM | > 10 µM and 25.5 µM | 9.45 µM and 4.41 µM | > 10 µM and 16.3 µM | > 10 µM and 12.1 µM | > 10 µM and 33.6 µM | > 10 µM and 11.9 µM | > 10 µM and 26.4 µM | > 10 µM and 13.1 µM | > 10 µM and 33.5 µM | > 10 µM and 6.66 µM | > 10 µM and 21.5 µM | > 10 µM and 11.3 µM | > 10 µM and 25.2 µM | 8 µM and 7.09 µM | > 10 µM and 30.9 µM | 0.546 µM and 0.415 µM | > 10 µM and 15.7 µM
COc1cccc2[nH]c(-c3ccccn3)nc12 |  | > 100 µM |  | > 100 µM |  | > 100 µM |  | > 100 µM |  | > 100 µM |  | 73.8 µM |  | > 100 µM |  | > 100 µM |  | > 100 µM |  | > 100 µM
COc1ccccc1S(=O)(=O)Nc1ccc2c(c1)CN(C)C(=O)N2 | 4.76 µM and 8.29 µM | > 100 µM | 14.6 µM and 7.41 µM | > 100 µM | 3.3 µM and 4.08 µM | > 100 µM | 1.87 µM and 1.48 µM | > 100 µM | 7.03 µM and 12.8 µM | > 100 µM | 29.5 µM and 33.3 µM | > 100 µM | 4.71 µM | > 100 µM | 4.68 µM and 4.87 µM | 99.2 µM and > 100 µM | 0.266 µM and 0.481 µM |  | 2.14 µM and 1.45 µM | > 95.5 µM and 50 µM
O=[N+]([O-])c1ccc(Sc2c3ccccc3nc3ccccc23)nc1 |  | 20.5 µM |  | 44.5 µM |  | 10.4 µM |  | 9.15 µM |  | 19.8 µM |  | 45.7 µM |  | 11.2 µM |  | 31.2 µM |  | 29.2 µM |  | 6.84 µM
